Test results: patent publication US20100160301A1, “MICROANGIOPATHY TREATMENT AND PREVENTION” (BAYER HEALTHCARE AG, priority 2005, published 2010)

Experiments:
[1] = tested on: thrombus formation in an arteriovenous shunt; assay: Arteriovenous shunt model (rat), antithrombotic action; format: in vivo; conditions: oral dosage, read-out: ED50 [mg/kg] p.o.
Protocol: Fasting male rats (strain: HSD CPB:WU) having a weight of 200-250 g are anesthetized using a Rompun/Ketavet solution (12 mg/kg/50 mg/kg). Thrombus formation is induced in an arteriovenous shunt following the method described by Christopher N. Berry et al., Br. J. Pharmacol. (1994), 113, 1209-1214. For this, the left jugular vein and the right carotid artery are exposed. An extracorporeal shunt is arranged between the two vessels by means of a 10 cm long polyethylene tube (PE 60). This polyethylene tube was linked in the center to a further 3 cm long polyethylene tube (PE 160), which contained a nylon thread which was roughened and linked to a loop for the production of a thrombogenic surface. The extracorporeal circulation is maintained for 15 minutes. The shunt is then removed and the nylon thread with the thrombus is immediately weighed. The unloaded weight of the nylon thread had been determined before the start of the experiment. Before starting the extracorporeal circulation, test substances are administered to conscious animals either intravenously via the caudal vein or orally by means of stomach tube.

| melting point | SMILES | ED50 [1] |
| --- | --- | --- |
| 228 to 230 °C | O=C(NC[C@H]1CN(c2ccc(N3CCCOC3=O)cc2)C(=O)O1)c1ccc(Cl)s1 [Example 255] |  |
|  | O=C(NC[C@H]1CN(c2ccc(N3CCOCC3=O)cc2)C(=O)O1)c1ccc(Cl)s1 [Example 44, 5-Chloro-N-({(5S)-2-oxo-3-[4-(3-oxo-4-morpholinyl)phenyl]-1,3-oxazolidin-5-yl}methyl)-2-thiophenecarboxamide] | 3 mg/kg |
